Calls of active or inactive are those of the source. The rule behind the calls is not given here.

The source of these data is ChEMBL document CHEMBL1154289, “Structure based design of novel irreversible FAAH inhibitors” (Bioorg Med Chem Lett, 2009).

For data set [1], the target named is T1, Fatty-acid amide hydrolase 1 (Homo sapiens) (UniProt O00519).
T1 sequence (whole entry): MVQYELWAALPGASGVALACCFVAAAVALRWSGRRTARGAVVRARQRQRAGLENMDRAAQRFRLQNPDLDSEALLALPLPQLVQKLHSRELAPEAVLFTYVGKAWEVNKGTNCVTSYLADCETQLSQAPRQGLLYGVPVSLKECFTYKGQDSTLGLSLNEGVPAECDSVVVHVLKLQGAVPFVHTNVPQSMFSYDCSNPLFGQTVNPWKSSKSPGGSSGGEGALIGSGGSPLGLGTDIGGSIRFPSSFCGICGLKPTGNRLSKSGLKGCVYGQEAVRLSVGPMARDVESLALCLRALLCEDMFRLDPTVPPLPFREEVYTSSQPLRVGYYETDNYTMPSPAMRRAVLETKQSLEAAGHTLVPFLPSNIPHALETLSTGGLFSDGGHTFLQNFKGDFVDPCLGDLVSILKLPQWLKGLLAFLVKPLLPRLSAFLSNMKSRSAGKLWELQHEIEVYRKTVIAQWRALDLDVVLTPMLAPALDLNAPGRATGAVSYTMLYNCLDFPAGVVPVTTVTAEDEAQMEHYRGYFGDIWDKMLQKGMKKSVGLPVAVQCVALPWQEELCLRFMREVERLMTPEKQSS
Kind of data set: Inhibition of human FAAH assessed as ratio of Kinact to Ki.

The target of data set [2] is T2, Fatty-acid amide hydrolase 1 (Rattus norvegicus) (UniProt P97612).
T2 sequence (whole entry): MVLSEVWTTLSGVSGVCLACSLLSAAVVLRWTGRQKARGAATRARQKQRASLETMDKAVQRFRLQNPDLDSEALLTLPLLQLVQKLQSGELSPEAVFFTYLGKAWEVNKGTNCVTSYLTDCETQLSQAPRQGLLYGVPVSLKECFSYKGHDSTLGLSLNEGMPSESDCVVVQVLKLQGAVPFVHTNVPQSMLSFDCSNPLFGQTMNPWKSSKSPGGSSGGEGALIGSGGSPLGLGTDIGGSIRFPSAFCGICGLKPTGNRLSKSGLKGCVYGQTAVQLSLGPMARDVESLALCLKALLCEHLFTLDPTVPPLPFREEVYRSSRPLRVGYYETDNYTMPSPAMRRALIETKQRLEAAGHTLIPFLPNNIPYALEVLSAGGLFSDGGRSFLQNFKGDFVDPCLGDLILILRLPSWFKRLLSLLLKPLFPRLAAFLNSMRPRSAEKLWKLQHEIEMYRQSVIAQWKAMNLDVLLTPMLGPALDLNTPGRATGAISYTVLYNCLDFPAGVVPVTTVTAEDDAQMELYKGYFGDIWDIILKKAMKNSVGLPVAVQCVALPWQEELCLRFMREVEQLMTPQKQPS
Kind of data set: Inhibition of rat FAAH assessed as ratio of Kinact to Ki.

The nature of data set [3]: Bioavailability in rat. The format is ADME, organism-based. To be noted: in vivo.

For the compound `Cc1noc(NC(=O)N2CC(CCCc3cccc(Oc4ccc(C(F)(F)F)cn4)c3)C2)c1C`, the Ratio in data set [1] was 1450 M⁻¹ s⁻¹; in data set [2], 15300 M⁻¹ s⁻¹.

The term bioavailability denotes dose-corrected exposure relative to a reference, in per cent. Lower therefore signals poor availability. As for `O=C(Nc1cccnc1)N1CC(/C=C\Cc2cccc(Oc3ccc(C(F)(F)F)cn3)c2)C1`, the values for the Ratio in data set [1] and in data set [2] were 9000 M⁻¹ s⁻¹ and 5390 M⁻¹ s⁻¹, respectively. The bioavailability in data set [3] turned out to be 73%.

Turning to `O=C(Nc1cccnc1)N1CC(C#CCc2cccc(Oc3ccc(C(F)(F)F)cn3)c2)C1`, the values for the Ratio in data set [1] and in data set [2] were 861 M⁻¹ s⁻¹ and 465 M⁻¹ s⁻¹, respectively.

As for `O=C(Nc1cccnc1)N1CC(=CCCc2cccc(Oc3ccc(C(F)(F)F)cn3)c2)C1`, the Ratio in data set [1] is 621 M⁻¹ s⁻¹; in data set [2], 1310 M⁻¹ s⁻¹.

For `O=C(Nc1cncc2[nH]ccc12)N1CC(CCCc2cccc(Oc3ccc(C(F)(F)F)cn3)c2)C1`, the results for the Ratio in data set [1] and in data set [2] were 881 M⁻¹ s⁻¹ and 5160 M⁻¹ s⁻¹, respectively.

Take `O=C(Nc1cccnn1)N1CC(CCCc2cccc(Oc3ccc(C(F)(F)F)cn3)c2)C1`: the values for the Ratio in data set [1] and in data set [2] were 3030 M⁻¹ s⁻¹ and 1840 M⁻¹ s⁻¹, respectively.

`O=C(Nc1cccnc1)N1CC(C/C=C\c2cccc(Oc3ccc(C(F)(F)F)cn3)c2)C1`: the Ratio in data set [1] stood at 782 M⁻¹ s⁻¹. Also, in data set [2], the Ratio result was “inactive”.

For the compound `O=C(Nc1cccnc1)N1CC(C/C=C/c2cccc(Oc3ccc(C(F)(F)F)cn3)c2)C1`, the Ratio came out at 2100 M⁻¹ s⁻¹ in data set [1] and 2310 M⁻¹ s⁻¹ in data set [2].

Turning to `O=C(Nc1cccnc1)N1CC(CCCc2cccc(Oc3ccc(C(F)(F)F)cn3)c2)C1`, the Ratio worked out at 1090 M⁻¹ s⁻¹ in data set [1] and 688 M⁻¹ s⁻¹ in data set [2].

On to `O=C(Nc1cccnc1)N1CC(/C=C/Cc2cccc(Oc3ccc(C(F)(F)F)cn3)c2)C1`, for which the Ratio came to 9340 M⁻¹ s⁻¹ in data set [1] and 2380 M⁻¹ s⁻¹ in data set [2]. The compound also had a bioavailability in data set [3] of 93%.
